Laboratory results taken from patent US20240270811A1, “Glycosylated Neuropeptide Derivative, Pharmaceutical Composition, Intranasal/Nasal Drop Formulation, and Use of Pharmaceutical Composition” (Tokyo University of Science Foundation, priority 2021, published 2024).
Where no end group is shown, it is not given here. The star is where a group is joined. X1 = CC(=O)N[C@@H]1[C@@H](O)[C@H](O[C@@H]2O[C@H](CO)[C@@H](O[C@@H]3O[C@H](CO[C@H]4O[C@H](CO)[C@@H](O)[C@H](O)[C@@H]4O[C@@H]4O[C@H](CO)[C@@H](O[C@@H]5O[C@H](CO[C@]6(C(=O)O)C[C@H](O)[C@@H](NC(C)=O)[C@H]([C@H](O)[C@H](O)CO)O6)[C@H](O)[C@H](O)[C@H]5O)[C@H](O)[C@H]4NC(C)=O)[C@@H](O)[C@H](O[C@H]4O[C@H](CO)[C@@H](O)[C@H](O)[C@@H]4O[C@@H]4O[C@H](CO)[C@@H](O[C@@H]5O[C@H](CO[C@]6(C(=O)O)C[C@H](O)[C@@H](NC(C)=O)[C@H]([C@H](O)[C@H](O)CO)O6)[C@H](O)[C@H](O)[C@H]5O)[C@H](O)[C@H]4NC(C)=O)[C@@H]3O)[C@H](O)[C@H]2NC(C)=O)[C@@H](CO)O[C@H]1NC(=O)C*

Key:
[1] = Distribution in brain by immunostaining of frozen brain sections (Example 6); format: in vivo, mouse; conditions: 3.0 nmol/4 μL intranasal
Experimental: The distribution in the brain of a glycosylated GLP-2 derivative (11-sugar) after intranasally administered was evaluated by preparing frozen brain sections and subjecting the same to immunostaining. The brain sections were prepared from tissues around the hippocampus (HIP), dorsomedial nucleus of the hypothalamus (DMH), olfactory bulb (OB), and pons/principal sensory nucleus of trigeminal nerve (Pr5). The olfactory bulb includes olfactory nerves, which are assumed to be a pathway for the migration of GLP-2.
After anesthetizing 7-week-old male ddY mice with isoflurane using an all-in-one small animal anesthetizer, a 16% DMSO solution of a PAS-CPP-GLP-2 derivative (11-sugar) (3.0 nmol/4 μL) or 16% DMSO as a control was intranasally administered to the mice by the amount of 2 μL per nose cavity, 4 μL in total. The brain was isolated 5 minutes after the administration and 20 minutes after administration.
The brain isolated 5 minutes after the intranasal administration was subjected to infiltration fixation with 4% PFA at 4° C. overnight without performing perfusion fixation. The isolation of the brain 20 minutes after the intranasal administration was performed by the following process.
The mouse is fixed in a supine position under anesthesia with isoflurane, and the chest was incised. PBS and 4% PFA were perfused, in this order, from the left chamber of the heart throughout the whole body for fixing the tissue. The isolated brain was preserved in a 4% PFA solution. On the day following the isolation, the brain samples were substituted with 20% sucrose overnight (4° C.), and further with 30% sucrose overnight (4° C.). Thereafter, a frozen section with a thickness of 30 μm was prepared using a cryostat (CM3050S; Leica Microsystems).
The frozen brain section was mounted on a slide glass, and a circle was drawn around the section with a liquid blocker. A blocking buffer was added inside the circle and the section was subjected to blocking for 30 minutes at room temperature. Thereafter, the section was added with a first antibody solution including a GLP-2 polyclonal antibody, diluted 200 times with a blocking solution, and subjected to incubation for 1 hour at room temperature. After washing three times with 1×PBS, the section was added with a second antibody solution including Alexa Fluor (trademark) 568 Goat Anti-Mouse IgG H&L, diluted 500 times with a BSA/PBS solution, and subjected to incubation for 1 hour at room temperature. After washing three times with 1×PBS, the section was mounted with ProLong (trademark) Diamond Antifade Mountant. After confirming the solidification of the mountant, the section was subjected to fluorescent observation and imaging with a confocal laser microscope (TCS SP8; Leica) and a software (Leica Application Suite X Software; Leica).

[2] = Migration to central nervous system, optical imaging of brain sagittal sections (ICG-labelled derivatives); format: in vivo, mouse; conditions: for fluorescence in brain section: 3.0 nmol/4 μL intranasal
Experimental: Administration solutions were prepared by completely dissolving a PAS-CPP-GLP-2 derivative (no sugar) labelled with ICG or a PAS-CPP-GLP-2 derivative (11-sugar) labelled with ICG in DMSO, and adjusting the final concentration of DMSO to 16% by adding PBS.
(§1) The concentration of a PAS-CPP-GLP-2 derivative (no sugar) or a PAS-CPP-GLP-2 derivative (11-sugar) was adjusted to 3.0 nmol/4 μL.
After anesthetizing mice with isoflurane using an all-in-one small animal anesthetizer, the administration solutions or 16% DMSO as a control was intranasally administered to the mice by the amount of 2 μL per nose cavity, 4 μL in total.
In order to observe the migration to the brain over time, the brain was isolated 5 minutes, 10 minutes, 20 minutes, 60 minutes and 90 minutes after the intranasal administration, respectively, and subjected to infiltration fixation with 4% paraformaldehyde (4% PFA) solution overnight. Subsequently, a sagittal section with a thickness of 2 mm at the left and the right from the center of the brain was prepared using a brain matrix (RBM-2000S, ASI). The section was placed in a dish and analyzed with an optical imaging apparatus (Clairvivo OPT plus, Shimadzu Corporation) at an excitation wavelength of 785 nm, fluorescence wavelength of 849 nm, and an exposure time: 6 seconds.

[3] = Solubility of GLP-2/GLP-1 derivatives with respect to aqueous medium (PBS); format: physicochemical; conditions: for solubility with respect to PBS (FIG. 1): freeze-dried 5-200 nmol/tube, PBS added, ultrasonic treatment, overnight, supernatant OD 280 nm
Experimental: Samples were prepared by dispensing a Milli-Q aqueous solution of PAS-CPP-GLP-2 (no sugar), PAS-CPP-GLP-2 (5-sugar) or PAS-CPP-GLP-2 (11-sugar) to a microtube by an amount of 5 nmol/tube, 30 nmol/tube, 60 nmol/tube, 120 nmol/tube or 200 nmol/tube, and freeze-drying the same. The freeze-dried samples were added with […] of PBS (Dulbecco's Phosphate Buffered Saline; Sigma-Aldrich, herein after the same), subjected to ultrasonic treatment, and allowed to stand overnight. Thereafter, the concentration of the peptide was measured. Specifically, a supernatant obtained by centrifuging the sample suspension was subjected to the measurement of OD (280 nm) with a spectrometer (NanoDrop™ 2000c spectrometer; Thermo Fisher Scientific K.K.)
Administration solutions were prepared by mixing a PAS-CPP-GLP-2 derivative (no sugar) or a PAS-CPP-GLP-2 derivative (11-sugar) with PBS. […] The concentration of each GLP-2 derivative was adjusted to 0.6 nmol/4 μL.
as §1

[4] = Amount of migration to brain quantified by GLP-2 ELISA; format: in vivo; conditions: in vivo, inhaled or intranasal, 6.0 nmol/mouse intranasal, brain isolated 20 minutes after administration, read-out: amount of GLP-2 derivative in brain
Experimental: Mice were intranasally administered with 16% DMSO or GLP-2 derivatives (6.0 nmol/mouse). The brain was isolated 20 minutes after the administration, and homogenized with BioMasher II (Nippi, Tokyo, Japan). A sample was prepared by performing centrifugal separation by 1000×g for 15 minutes and collecting a supernatant. The amount of a GLP-2 derivative in the sample was quantified using a GLP-2 ELISA kit. Specifically, a cleaning process including filling each well of a measurement plate with a cleaning fluid (350 μL) and suctioning the cleaning fluid with a pipette was performed three times. Subsequently, a labeled antigen solution (40 μL), a sample (25 μL) and a specific antibody solution (50 μL) were added in this order to the well and mixed. The measurement plate was tightly sealed and allowed to stand for 18 hours at 4° C. The cleaning process was performed three times, and a SA-HRP solution (100 μL) was added and allowed to permeate for 1.5 hours at room temperature (60 rpm). […] Finally, an enzyme reaction stop solution (100 μL) was added and an absorbance at 490 nm was measured with ARVO (PerkinElmer Japan Co., Ltd., Kanagawa, Japan) to calculate the concentration of a GLP-2 derivative.

In the case of “FFLIPKGRRRRRRRRGGHADGSFSDEMNTILDNLAARDFINWLIQTKITDC(X1)-OH [PAS-CPP-GLP-2 (11-sugar)]”, the “fluorescence at region around Pr5” value ([1]; 5 minutes) is reported as “fluorescence was observed intensely”, the “fluorescence at the other regions (HIP, DMH, OB)” value ([1]; 5 minutes) is reported as “very little fluorescence was observed” and the “fluorescence at DMH” value ([1]; 20 minutes) is reported as “observed clearly”. For the same substance, the “fluorescence at HIP” value ([1]; 20 minutes) was “fluorescence was observed”, the “fluorescence at Pr5” value ([1]; 20 minutes) was “florescence was observed” and the “fluorescence intensity at OB” value ([1]; 20 minutes) was “weak”. For the same substance, the “fluorescence in brain section” value ([2]; 5 minutes after administration) was “fluorescence was observed”, the “fluorescence in brain section” value ([2]; 10 minutes after administration) was “fluorescence was observed intensively” and the “fluorescence in brain section” value ([2]; 20 minutes after administration) was “fluorescence was observed”. For the same substance, the “fluorescence in brain section” value ([2]; 60 minutes after administration) was “a relatively strong degree of fluorescence was observed”, the “fluorescence in brain section” value ([2]; 90 minutes after administration) was “fluorescence was not observed” and the “retention in brain compared with PAS-CPP-GLP-2 derivative (no sugar)” value ([2]; intranasal, 5-90 minutes) was “remains in the brain for a longer time period”. For the same substance, the “solubility in PBS” value ([3]; PBS) was “completely soluble in PBS”, the “solubility with respect to PBS (FIG. 1)” value ([3]; listed as GLP-2 derivatives (11-sugar)) was “linearly improved” and the “solubility with respect to PBS (FIG. 1)” value ([3]; listed as glycosylated GLP-2 derivative (11-sugar)) was “improved solubility”. For the same substance, the “state of derivative in PBS administration solution” value ([3]; mixed with PBS, 0.6 nmol/4 μL) was “completely dissolved” and the tissue level at time molar at 20 min [4] was 0.0106 ± 0.000998 nmol/g.
